The subject of this assay is F420-dependent dehydrogenase (ORF 9). The format is biochemical, Rhodococcus erythropolis HL PM-1.

For `O=[N+]([O-])c1ccc(O)c([N+](=O)[O-])c1` [DNP, 2,4-dinitrophenol], the “reduction of the substrate to its Meisenheimer complex upon addition of ORF 9 extract” value was “reduces”.

(Values after patent US6461856B2 (priority 1999, dated 2002).)
